{"source": "patent US9688699B2", "about": "“3-(pyrimidine-2-yl)imidazo[1,2-a]pyridines” (Bayer Pharma Aktiengesellschaft, priority 2014, dated 2017)", "key": {"[1]": {"molecular_target": "T1, recombinant guanylate cyclase reporter cell line (Rattus norvegicus, UniProt P19686+P20595)", "T1 construct": "expressed in transfected cells", "T1 sequence (P19686 1-690)": "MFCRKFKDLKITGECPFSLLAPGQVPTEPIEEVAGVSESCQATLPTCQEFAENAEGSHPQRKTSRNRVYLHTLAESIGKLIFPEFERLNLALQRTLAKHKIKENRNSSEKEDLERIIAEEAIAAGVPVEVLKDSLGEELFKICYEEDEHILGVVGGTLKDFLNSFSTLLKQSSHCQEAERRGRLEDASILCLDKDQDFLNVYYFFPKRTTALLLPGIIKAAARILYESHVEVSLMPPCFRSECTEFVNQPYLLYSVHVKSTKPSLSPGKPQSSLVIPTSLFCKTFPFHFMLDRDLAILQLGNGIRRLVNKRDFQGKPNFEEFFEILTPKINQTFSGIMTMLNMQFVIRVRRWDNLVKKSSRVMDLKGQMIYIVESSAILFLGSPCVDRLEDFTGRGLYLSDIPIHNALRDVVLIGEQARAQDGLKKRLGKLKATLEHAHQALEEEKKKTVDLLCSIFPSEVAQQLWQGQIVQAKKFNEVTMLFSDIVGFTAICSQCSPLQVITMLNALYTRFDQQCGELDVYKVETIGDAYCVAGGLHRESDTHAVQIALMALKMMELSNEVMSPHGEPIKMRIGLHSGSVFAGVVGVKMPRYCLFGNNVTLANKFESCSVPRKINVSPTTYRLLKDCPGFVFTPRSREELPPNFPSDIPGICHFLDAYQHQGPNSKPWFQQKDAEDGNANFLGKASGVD", "T1 sequence (P20595 1-619)": "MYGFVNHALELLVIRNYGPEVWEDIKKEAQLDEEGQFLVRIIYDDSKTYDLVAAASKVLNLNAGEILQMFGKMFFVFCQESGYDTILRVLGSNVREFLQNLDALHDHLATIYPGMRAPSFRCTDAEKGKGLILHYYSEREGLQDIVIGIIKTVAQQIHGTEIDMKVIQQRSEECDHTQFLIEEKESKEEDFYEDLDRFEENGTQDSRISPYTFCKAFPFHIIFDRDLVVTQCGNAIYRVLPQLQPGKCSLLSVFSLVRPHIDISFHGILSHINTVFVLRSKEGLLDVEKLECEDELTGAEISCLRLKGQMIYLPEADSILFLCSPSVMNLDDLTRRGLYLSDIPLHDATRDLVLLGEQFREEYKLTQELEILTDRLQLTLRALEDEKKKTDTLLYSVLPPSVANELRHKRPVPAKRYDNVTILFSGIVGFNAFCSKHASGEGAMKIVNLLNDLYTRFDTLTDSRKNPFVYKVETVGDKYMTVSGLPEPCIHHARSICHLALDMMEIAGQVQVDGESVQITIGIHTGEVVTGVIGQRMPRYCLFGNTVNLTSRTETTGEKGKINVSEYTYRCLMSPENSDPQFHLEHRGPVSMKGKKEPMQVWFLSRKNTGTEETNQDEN", "test": "Effect on a recombinant guanylate cyclase reporter cell line (B-2)", "assay_type": "cell-based", "settings": "MEC = minimum effective concentration, in some cases mean values for individual determinations", "procedure": "B-2. Effect on a Recombinant Guanylate Cyclase Reporter Cell Line\nThe cellular activity of the compounds according to the invention is determined using a recombinant guanylate cyclase reporter cell line, as described in F. Wunder et al., Anal. Biochem. 339, 104-112 (2005).\nRepresentative MEC values (MEC=minimum effective concentration) for the compounds of the invention are shown in Table 1 below (in some cases as mean values for individual determinations): […]"}, "[2]": {"molecular_target": "T2, human phosphodiesterase 5 (PDE 5) (Homo sapiens, UniProt O76074)", "T2 construct": "PDE 5 preparations are obtained from human platelets by disruption; from tissue; host or cells: human platelets (Mono Q ion exchange fractions with PDE 5 activity)", "test": "Inhibition of human phosphodiesterase 5 (PDE 5) (B-3)", "assay_type": "biochemical", "settings": "PDE 5 preparation from human platelets; [8-3H] cGMP substrate, SPA; in some cases means of individual determinations", "procedure": "B-3. Inhibition of Human Phosphodiesterase 5 (PDE 5)\nPDE 5 preparations are obtained from human platelets by disruption (Microfluidizer®, 800 bar, 3 passes), followed by centrifugation (75 000 g, 60 min, 4° C.) and ion exchange chromatography of the supernatant on a Mono Q 10/10 column (linear sodium chloride gradient, elution with a 0.2-0.3M solution of sodium chloride in buffer (20 mM Hepes pH 7.2, 2 mM magnesium chloride). Fractions having PDE 5 activity are combined (PDE 5 preparation) and stored at −80° C.\nTo determine their in vitro action on human PDE 5, the test substances are dissolved in 100% DMSO and serially diluted. Typically, dilution series (1:3) from 200 μM to 0.091 μM are prepared (resulting final concentrations in the test: 4 μM to 0.0018 μM). In each case 2 μl of the diluted substance solutions are placed into the wells of microtitre plates (Isoplate-96/200 W; Perkin Elmer). Subsequently, 50 μl of a dilution of the above-described PDE 5 preparation are added. The dilution of the PDE 5 preparation is chosen such that during the later incubation less than 70% of the substrate are converted (typical dilution: 1:100; dilution buffer: 50 mM tris/hydrochloric acid pH 7.5, 8.3 mM magnesium chloride, 1.7 mM EDTA, 0.2% BSA). The substrate, [8-^3H] cyclic guanosine-3′,5′-monophosphate (1 μCi/μl; Perkin Elmer), is diluted 1:2000 with assay buffer (50 mM tris/hydrochloric acid pH 7.5, 8.3 mM magnesium chloride, 1.7 mM EDTA) to a concentration of 0.0005 μCi/μl. By addition of 50 μl (0.025 μCi) of the diluted substrate, the enzyme reaction is finally started. The test mixtures are incubated at room temperature for 60 min and the reaction is stopped by adding 25 μl of a suspension of 18 mg/ml yttrium scintillation proximity beads in water (phosphodiesterase beads for SPA assays, RPNQ 0150, Perkin Elmer). The microtitre plates are sealed with a film and left to stand at room temperature for 60 min. Subsequently, the plates are analysed for 30 s per well in a Microbeta scintillation counter (Perkin Elmer). IC50 values are determined using the graphic plot of the substance concentration against percentage PDE 5 inhibition."}}, "note": "Where a name gives a salt, the structure may show the parent alone.", "data": [{"smiles": "COc1ccc(CC(C)(N)CNc2nc(-c3c(C)nc4c(OCc5c(F)cccc5F)cccn34)nc3c2C(C)(C)C(=O)N3)cc1", "note": "(racemic) [Example 20, rac-4-{[2-amino-3-(4-methoxyphenyl)-2-methylpropyl]amino}-2-{8-[(2,6-difluorobenzyl)oxy]-2-methylimidazo[1,2-a]pyridin-3-yl}-5,5-dimethyl-5,7-dihydro-6H-pyrrolo[2,3-d]pyrimidin-6-one]", "values": [{"measurement": "MEC", "setting": "[1]", "value": 3, "unit": "µM"}, {"measurement": "IC50", "setting": "[2]", "value": 110, "unit": "nM"}]}, {"smiles": "COCC(C)(N)CNc1nc(-c2c(C)nc3c(OCc4c(F)cccc4F)cccn23)nc2c1C(C)(C)C(=O)N2", "note": "(racemic) [Example 21, rac-4-[(2-amino-3-methoxy-2-methylpropyl)amino]-2-{8-[(2,6-difluorobenzyl)oxy]-2-methylimidazo[1,2-a]pyridin-3-yl}-5,5-dimethyl-5,7-dihydro-6H-pyrrolo[2,3-d]pyrimidin-6-one]", "values": [{"measurement": "MEC", "setting": "[1]", "value": 0.3, "unit": "µM"}, {"measurement": "IC50", "setting": "[2]", "value": 22, "unit": "nM"}]}, {"smiles": "Cc1nc2c(OCc3c(F)cccc3F)cccn2c1-c1nc(NCC(N)C(F)(F)F)c2c(n1)NC(=O)C2(C)C", "note": "(racemic) [Example 25, rac-4-[(2-amino-3,3,3-trifluoropropyl)amino]-2-{8-[(2,6-difluorobenzyl)oxy]-2-methylimidazo[1,2-a]pyridin-3-yl}-5,5-dimethyl-5,7-dihydro-6H-pyrrolo[2,3-d]pyrimidin-6-one]", "values": [{"measurement": "MEC", "setting": "[1]", "value": 3, "unit": "µM"}, {"measurement": "IC50", "setting": "[2]", "value": 15, "unit": "nM"}]}, {"smiles": "Cc1nc2c(OCc3c(F)cccc3F)cccn2c1-c1nc(NCC(N)C(F)(F)C(F)F)c2c(n1)NC(=O)C2(C)C", "note": "(racemic) [Example 27, rac-4-[(2-amino-3,3,4,4-tetrafluorobutyl)amino]-2-{8-[(2,6-difluorobenzyl)oxy]-2-methylimidazo[1,2-a]pyridin-3-yl}-5,5-dimethyl-5,7-dihydro-6H-pyrrolo[2,3-d]pyrimidin-6-one]", "values": [{"measurement": "MEC", "setting": "[1]", "value": 3, "unit": "µM"}, {"measurement": "IC50", "setting": "[2]", "value": 23, "unit": "nM"}]}, {"smiles": "COCC(C)(N)CNc1nc(-c2c(C)nc3c(OCc4c(F)ccc(F)c4F)cccn23)nc2c1C(C)(C)C(=O)N2", "note": "(racemic) [Example 35, rac-4-[(2-amino-3-methoxy-2-methylpropyl)amino]-5,5-dimethyl-2-{2-methyl-8-[(2,3,6-trifluorobenzyl)oxy]imidazo[1,2-a]pyridin-3-yl}-5,7-dihydro-6H-pyrrolo[2,3-d]pyrimidin-6-one formate]", "values": [{"measurement": "MEC", "setting": "[1]", "value": 1, "unit": "µM"}, {"measurement": "IC50", "setting": "[2]", "value": 35, "unit": "nM"}]}, {"smiles": "Cc1nc2c(OCc3c(F)cccc3F)cccn2c1-c1nc(NCC(C)(N)C(F)F)c2c(n1)NC(=O)C2(C)C", "note": "(racemic) [Example 39, rac-4-[(2-amino-3,3-difluoro-2-methylpropyl)amino]-2-{8-[(2,6-difluorobenzyl)oxy]-2-methylimidazo[1,2-a]pyridin-3-yl}-5,5-dimethyl-5,7-dihydro-6H-pyrrolo[2,3-d]pyrimidin-6-one]", "values": [{"measurement": "MEC", "setting": "[1]", "value": 0.3, "unit": "µM"}, {"measurement": "IC50", "setting": "[2]", "value": 9.6, "unit": "nM"}]}, {"smiles": "Cc1nc2c(OCc3c(F)cccc3F)cccn2c1-c1nc(NCC(C)(N)C(F)(F)F)c2c(n1)NC(=O)C2(C)C", "note": "(racemic) [Example 40, rac-4-[(2-Amino-3,3,3-trifluoro-2-methylpropyl)amino]-2-{8-[(2,6-difluorobenzyl)oxy]-2-methylimidazo[1,2-a]pyridin-3-yl}-5,5-dimethyl-5,7-dihydro-6H-pyrrolo[2,3-d]pyrimidin-6-one]", "values": [{"measurement": "MEC", "setting": "[1]", "value": 3, "unit": "µM"}, {"measurement": "IC50", "setting": "[2]", "value": 14, "unit": "nM"}]}, {"smiles": "Cc1nc2c(OCc3c(F)cccc3F)cccn2c1-c1nc(NCC(C)(C)N)c2c(n1)NC(=O)C2(C)C(F)(F)F", "note": "(racemic) [Example 41, rac-4-[(2-Amino-2-methylpropyl)amino]-2-{8-[(2,6-difluorobenzyl)oxy]-2-methylimidazo[1,2-a]pyridin-3-yl}-5-methyl-5-(trifluoromethyl)-5,7-dihydro-6H-pyrrolo[2,3-d]pyrimidin-6-one]", "values": [{"measurement": "MEC", "setting": "[1]", "value": 0.1, "unit": "µM"}, {"measurement": "IC50", "setting": "[2]", "value": 1.7, "unit": "nM"}]}, {"smiles": "Cc1nc2c(OCc3c(F)ccc(F)c3F)cccn2c1-c1nc2c(c(C(=O)N3CC(N)C(F)(F)C3)n1)C(C)(C)C(=O)N2", "note": "(racemic) [Example 61, rac-4-[(4-amino-3,3-difluoropyrrolidin-1-yl)carbonyl]-5,5-dimethyl-2-{2-methyl-8-[(2,3,6-trifluorobenzyl)oxy]imidazo[1,2-a]pyridin-3-yl}-5,7-dihydro-6H-pyrrolo[2,3-d]pyrimidin-6-one trifluoroacetate]", "values": [{"measurement": "MEC", "setting": "[1]", "value": 3, "unit": "µM"}, {"measurement": "IC50", "setting": "[2]", "value": 730, "unit": "nM"}]}, {"smiles": "Cc1nc2c(OCc3c(F)ccc(F)c3F)cccn2c1-c1nc2c(c(C(=O)N3CCC(O)C3)n1)C(C)(C)C(=O)N2", "note": "(racemic) [Example 62, rac-4-[(3-hydroxypyrrolidin-1-yl)carbonyl]-5,5-dimethyl-2-{2-methyl-8-[(2,3,6-trifluorobenzyl)oxy]imidazo[1,2-a]pyridin-3-yl}-5,7-dihydro-6H-pyrrolo[2,3-d]pyrimidin-6-one]", "values": [{"measurement": "MEC", "setting": "[1]", "value": 3, "unit": "µM"}, {"measurement": "IC50", "setting": "[2]", "value": 400, "unit": "nM"}]}, {"smiles": "Cc1nc2c(OCc3c(F)ccc(F)c3F)cccn2c1-c1nc2c(c(C(=O)N3CCC(CO)C3)n1)C(C)(C)C(=O)N2", "note": "(racemic) [Example 63, rac-4-{[3-(hydroxymethyl)pyrrolidin-1-yl]carbonyl}-5,5-dimethyl-2-{2-methyl-8-[(2,3,6-trifluorobenzyl)oxy]imidazo[1,2-a]pyridin-3-yl}-5,7-dihydro-6H-pyrrolo[2,3-d]pyrimidin-6-one]", "values": [{"measurement": "MEC", "setting": "[1]", "value": 3, "unit": "µM"}, {"measurement": "IC50", "setting": "[2]", "value": 220, "unit": "nM"}]}, {"smiles": "Cc1nc2c(OCc3c(F)cccc3F)cccn2c1-c1nc2c(c(N3C[C@H]4C[C@@]4(N)C3)n1)C(C)(C)C(=O)N2", "note": "(relative stereo) [Example 32, rac-rel-4-[(1R,5S)-1-amino-3-azabicyclo[3.1.0]hex-3-yl]-2-{8-[(2,6-difluorobenzyl)oxy]-2-methylimidazo[1,2-a]pyridin-3-yl}-5,5-dimethyl-5,7-dihydro-6H-pyrrolo[2,3-d]pyrimidin-6-one formate]", "values": [{"measurement": "MEC", "setting": "[1]", "value": 1, "unit": "µM"}, {"measurement": "IC50", "setting": "[2]", "value": 11, "unit": "nM"}]}]}
